Patent US9758559B2, “Short peptides derived from VDAC1, compositions and methods of use thereof” (B.G. NEGEV TECHNOLOGIES AND APPLICATIONS LTD., AT …, priority 2013, dated 2017)
Where a SMILES comes first, the peptide text is derived from it. [ ]: non-standard residue; d: D form.

Assays:
[1] = tested on: glioblastoma xenografts (U87 cells); assay: Tumor growth of U87 glioblastoma xenografts in nude mice; format: in vivo; conditions: xenografts injected with 10 μl of 20 or 40 μM solutions
Experimental: U87 cells were inoculated into male nude mice (7×10^6 cells/mouse). Tumor volumes were monitored (using a digital caliper) and on day 11, the mice were divided into […] (5 mice per group), with each mouse containing a tumor with a volume between 100-200 mm^3 and similar average volumes measured per group. The four mice groups were subjected to the following treatments: Xenografts were injected with 0.26% DMSO (control), with D-Δ1-14N-Ter-Antp (10 μl of 20 or 40 μM solutions) or with the previously disclosed Tf-LP4 peptide (10 μl of a 20 μM solution).

[2] = tested on: human prostate cancer cell lines (PC3); format: cell-based
Excerpt: Data represent mean values, n=3.
It was previously disclosed that peptide Antp-LP4 (SEQ ID NO:23) derived from another part of VDAC1, selectively induce cell death of cancerous cells co-expressing the cell surface markers CD19 and CD5 (U.S. Pat. No. 8,648,045) as well as other cancer cells as HeLa.

CC[C@@H](C)[C@@H](NC(=O)[C@@H](CCCCN)NC(=O)[C@H](NC(=O)[C@@H](CCC(N)=O)NC(=O)[C@@H](CCCNC(=N)N)NC(=O)[C@@H](CC(C)C)NC(=O)CNC(=O)[C@@H](Cc1ccccc1)NC(=O)CNC(=O)[C@@H](Cc1ccc(O)cc1)NC(=O)CNC(=O)[C@@H](CCCCN)NC(=O)[C@H](NC(=O)[C@@H](Cc1ccccc1)NC(=O)[C@H](NC(=O)[C@@H](CC(=O)O)NC(=O)[C@H](N)CCCNC(=N)N)C(C)C)[C@H](C)O)[C@H](C)CC)C(=O)N[C@H](Cc1c[nH]c2ccccc12)C(=O)N[C@H](Cc1ccccc1)C(=O)N[C@H](CCC(N)=O)C(=O)N[C@H](CC(N)=O)C(=O)N[C@H](CCCNC(=N)N)C(=O)N[C@H](CCCNC(=N)N)C(=O)N[C@H](CCSC)C(=O)N[C@H](CCCCN)C(=O)N[C@H](Cc1c[nH]c2ccccc12)C(=O)N[C@H](CCCCN)C(=O)N[C@H](CCCCN)C(=O)O [D-Δ(1-14) N-Ter-Antp, ALL D-RDVFTKGYGFGL RQIKIWFQNRRMKWKK] (H-[dR][dD][dV][dF][dT][dK]G[dY]G[dF]G[dL][dR][dQ][dI][dK][dI][dW][dF][dQ][dN][dR][dR][dM][dK][dW][dK][dK]-OH)
tumor size [1]: significantly reduced the tumor size | induction of cell death, in words ([2]; PC3 cells): dramatic cell death | IC50 ([2]; prostate cell line PC3, read-out: IC50, cancer cell death, PC3): 1510 nM
